# Molecular target: T1, PH20 hyaluronidase (bovine testicular hyaluronidase, BTH/PH20) (Bos taurus, UniProt Q2YDK3)
# T1 sequence (Q2YDK3 36-553): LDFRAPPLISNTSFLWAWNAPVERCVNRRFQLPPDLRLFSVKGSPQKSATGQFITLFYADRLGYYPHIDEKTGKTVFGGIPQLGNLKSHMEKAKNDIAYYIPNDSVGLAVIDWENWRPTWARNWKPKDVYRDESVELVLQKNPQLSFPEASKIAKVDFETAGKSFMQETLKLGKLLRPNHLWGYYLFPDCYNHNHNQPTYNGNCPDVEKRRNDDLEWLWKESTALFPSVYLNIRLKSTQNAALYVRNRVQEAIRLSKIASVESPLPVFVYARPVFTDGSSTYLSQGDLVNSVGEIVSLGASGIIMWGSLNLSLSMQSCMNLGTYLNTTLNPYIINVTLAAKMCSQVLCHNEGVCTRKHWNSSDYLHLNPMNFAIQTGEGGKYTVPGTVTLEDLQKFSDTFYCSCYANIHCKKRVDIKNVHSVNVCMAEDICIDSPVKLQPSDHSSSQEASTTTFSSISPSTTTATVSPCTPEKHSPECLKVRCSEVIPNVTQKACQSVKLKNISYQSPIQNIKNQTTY
# Format: biochemical
smiles,measurement,value
"CCCCCCCCCCCCCCCC(=O)OC[C@H](O)[C@H]1OC(=O)C(O)=C1O [VCPAL, 6-O-Palmitoyl-L-ascorbic acid]",IC50,~33 µM
